{
  "source": "patent US20120142667A1",
  "about": "“PYRIMIDINE DERIVATIVES AS ZAP-70 INHIBITORS” (priority 2009, published 2012)",
  "target": "T1, ZAP-70 (Homo sapiens, UniProt P43403)",
  "T1 construct": "endogenous in cells; host or cells: cell lysate",
  "T1 sequence (P43403 1-619)": "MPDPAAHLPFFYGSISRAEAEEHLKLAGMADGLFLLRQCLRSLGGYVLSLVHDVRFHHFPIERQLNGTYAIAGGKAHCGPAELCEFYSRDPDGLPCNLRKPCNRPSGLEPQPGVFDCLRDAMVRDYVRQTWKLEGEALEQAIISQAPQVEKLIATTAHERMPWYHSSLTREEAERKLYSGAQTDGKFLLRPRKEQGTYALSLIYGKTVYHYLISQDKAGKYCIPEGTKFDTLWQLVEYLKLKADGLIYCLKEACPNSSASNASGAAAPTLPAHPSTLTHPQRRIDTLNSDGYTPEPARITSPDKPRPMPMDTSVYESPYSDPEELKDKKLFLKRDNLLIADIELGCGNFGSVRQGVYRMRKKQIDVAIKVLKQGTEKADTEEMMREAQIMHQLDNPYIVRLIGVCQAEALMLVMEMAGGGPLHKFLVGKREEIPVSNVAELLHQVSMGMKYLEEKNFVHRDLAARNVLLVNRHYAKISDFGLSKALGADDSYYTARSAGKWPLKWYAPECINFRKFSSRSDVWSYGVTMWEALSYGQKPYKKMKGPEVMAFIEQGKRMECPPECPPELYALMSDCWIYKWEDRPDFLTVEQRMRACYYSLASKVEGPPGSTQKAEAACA",
  "experiment": "ZAP-70 kinobeads assay",
  "type": "binding",
  "conditions": "cell lysate",
  "procedure": "The compounds of the present invention as described in the previous examples can be tested in the ZAP-70 kinobeads assay as described (EP-A 1862802 and WO-A 2007/137867). Briefly, test compounds (at various concentrations) and the affinity matrix with the immobilized aminopyrido-pyrimidine ligand 24 are added to cell lysate aliquots and allowed to bind to the proteins in the lysate sample. After the incubation time the beads with captured proteins are separated from the lysate. Bound proteins are then eluted and the presence ZAP-70 is detected and quantified using a specific antibody in a dot blot procedure and the Odyssey infrared detection system.",
  "note": "Counter-ions that a name gives are not always drawn.",
  "data": [
    {"smiles": "COc1ccc(Nc2nc(Nc3ccc(F)cc3C)ncc2Cl)c(NS(C)(=O)=O)c1", "note": "[Example 45, N-(2-(5-chloro-2-(4-fluoro-2-methylphenylamino)pyrimidin-4-ylamino)-5-methoxyphenyl)methanesulfonamide]", "values": [
      {"measurement": "IC50", "result": "0.1 to 1", "unit": "µM"}
    ]},
    {"smiles": "COc1ccc(Nc2nc(Nc3ccc(F)c(F)c3OC)ncc2Cl)c(NS(C)(=O)=O)c1", "note": "[Example 46, N-(2-(5-chloro-2-(3,4-difluoro-2-methoxyphenylamino)pyrimidin-4-ylamino)-5-methoxyphenyl)methanesulfonamide]", "values": [
      {"measurement": "IC50", "result": "1 to 10", "unit": "µM"}
    ]},
    {"smiles": "COc1ccc(Nc2nc(Nc3cc(OC)c(C)cc3OC)ncc2Cl)c(NS(C)(=O)=O)c1", "note": "[Example 47, N-(2-(5-chloro-2-(2,5-dimethoxy-4-methylphenylamino)pyrimidin-4-ylamino)-5-methoxyphenyl)methanesulfonamide]", "values": [
      {"measurement": "IC50", "result": "0.1 to 1", "unit": "µM"}
    ]},
    {"smiles": "COc1ccc(Nc2nc(Nc3ccccc3F)ncc2Cl)c(NS(C)(=O)=O)c1", "note": "[Example 48, N-(2-(5-chloro-2-(2-fluorophenylamino)pyrimidin-4-ylamino)-5-methoxyphenyl)methanesulfonamide]", "values": [
      {"measurement": "IC50", "result": "0.1 to 1", "unit": "µM"}
    ]},
    {"smiles": "COc1ccc(Nc2nc(Nc3cc(C)ccc3F)ncc2Cl)c(NS(C)(=O)=O)c1", "note": "[Example 49, N-(2-(5-chloro-2-(2-fluoro-5-methylphenylamino)pyrimidin-4-ylamino)-5-methoxyphenyl)methanesulfonamide]", "values": [
      {"measurement": "IC50", "result": "0.1 to 1", "unit": "µM"}
    ]},
    {"smiles": "COc1ccc(Nc2nc(Nc3ccccc3C)ncc2Cl)c(NS(C)(=O)=O)c1", "note": "[Example 50, N-(2-(5-chloro-2-(o-tolylamino)pyrimidin-4-ylamino)-5-methoxyphenyl)methanesulfonamide hydrochloride]", "values": [
      {"measurement": "IC50", "result": "0.1 to 1", "unit": "µM"}
    ]},
    {"smiles": "COc1ccc(Nc2nc(Nc3ccccc3OC)ncc2Cl)c(NS(C)(=O)=O)c1", "note": "[Example 51, N-(2-(5-chloro-2-(2-methoxyphenylamino)pyrimidin-4-ylamino)-5-methoxyphenyl)methanesulfonamide hydrochloride]", "values": [
      {"measurement": "IC50", "result": "0.1 to 1", "unit": "µM"}
    ]},
    {"smiles": "COc1ccc(Nc2nc(Nc3cccc(C)c3C)ncc2Cl)c(NS(C)(=O)=O)c1", "note": "[Example 52, N-(2-(5-chloro-2-(2,3-dimethylphenylamino)pyrimidin-4-ylamino)-5-methoxyphenyl)methanesulfonamide]", "values": [
      {"measurement": "IC50", "result": "0.1 to 1", "unit": "µM"}
    ]},
    {"smiles": "COc1ccc(Nc2nc(Nc3cc(OC)c(OC)cc3Cl)ncc2Cl)c(NS(C)(=O)=O)c1", "note": "[Example 53, N-(2-(5-chloro-2-(2-chloro-4,5-dimethoxyphenylamino)pyrimidin-4-ylamino)-5-methoxyphenyl)methanesulfonamide]", "values": [
      {"measurement": "IC50", "result": "0.1 to 1", "unit": "µM"}
    ]},
    {"smiles": "COc1ccc(Nc2nc(Nc3cccc(OC)c3C)ncc2Cl)c(NS(C)(=O)=O)c1", "note": "[Example 54, N-(2-(5-chloro-2-(3-methoxy-2-methylphenylamino)pyrimidin-4-ylamino)-5-methoxyphenyl)methanesulfonamide]", "values": [
      {"measurement": "IC50", "result": "0.1 to 1", "unit": "µM"}
    ]},
    {"smiles": "COc1ccc(Nc2nc(Nc3cc(C)ccc3OC)ncc2Cl)c(NS(C)(=O)=O)c1", "note": "[Example 56, N-(2-(5-chloro-2-(2-methoxy-5-methylphenylamino)pyrimidin-4-ylamino)-5-methoxyphenyl)methanesulfonamide]", "values": [
      {"measurement": "IC50", "result": "0.1 to 1", "unit": "µM"}
    ]},
    {"smiles": "COc1ccc(Nc2nc(Nc3cc(OC)c(F)cc3F)ncc2Cl)c(NS(C)(=O)=O)c1", "note": "[Example 58, N-(2-(5-chloro-2-(2,4-difluoro-5-methoxyphenylamino)pyrimidin-4-ylamino)-5-methoxyphenyl)methanesulfonamide hydrochloride]", "values": [
      {"measurement": "IC50", "result": "0.1 to 1", "unit": "µM"}
    ]},
    {"smiles": "COc1ccc(Nc2nc(Nc3ccc(C)cc3C)ncc2Cl)c(NS(C)(=O)=O)c1", "note": "[Example 59, N-(2-(5-chloro-2-(2,4-dimethylphenylamino)pyrimidin-4-ylamino)-5-methoxyphenyl)methanesulfonamide hydrochloride]", "values": [
      {"measurement": "IC50", "result": "0.1 to 1", "unit": "µM"}
    ]},
    {"smiles": "COc1ccc(Nc2nc(Nc3cccc(F)c3F)ncc2Cl)c(NS(C)(=O)=O)c1", "note": "[Example 60, N-(2-(5-chloro-2-(2,3-difluorophenylamino)pyrimidin-4-ylamino)-5-methoxyphenyl)methanesulfonamide hydrochloride]", "values": [
      {"measurement": "IC50", "result": "1 to 10", "unit": "µM"}
    ]},
    {"smiles": "COc1ccc(Nc2nc(Nc3cccc(F)c3OC)ncc2Cl)c(NS(C)(=O)=O)c1", "note": "[Example 61, N-(2-(5-chloro-2-(3-fluoro-2-methoxyphenylamino)pyrimidin-4-ylamino)-5-methoxyphenyl)methanesulfonamide hydrochloride]", "values": [
      {"measurement": "IC50", "result": "1 to 10", "unit": "µM"}
    ]},
    {"smiles": "COc1ccc(Nc2nc(Nc3ccc(C)cc3OC)ncc2Cl)c(NS(C)(=O)=O)c1", "note": "[Example 62, N-(2-(5-chloro-2-(2-methoxy-4-methylphenylamino)pyrimidin-4-ylamino)-5-methoxyphenyl)methanesulfonamide hydrochloride]", "values": [
      {"measurement": "IC50", "result": "0.1 to 1", "unit": "µM"}
    ]},
    {"smiles": "COc1ccc(Nc2nc(Nc3cc(OCCN)ccc3F)ncc2Cl)c(NS(C)(=O)=O)c1", "note": "[Example 66, N-(2 (2 (5 (2 aminoethoxy)-2-fluorophenylamino)-5-chloropyrimidin-4-ylamino)-5-methoxyphenyl)methanesulfonamide]", "values": [
      {"measurement": "IC50", "result": "0.1 to 1", "unit": "µM"}
    ]},
    {"smiles": "COc1ccc(Nc2nc(Nc3cnc(O)cc3OC)ncc2Cl)c(NS(C)(=O)=O)c1", "note": "[Example 78, N-(2-(5-chloro-2-(6-hydroxy-4-methoxypyridin-3-ylamino)pyrimidin-4-ylamino)-5-methoxyphenyl)methanesulfonamide]", "values": [
      {"measurement": "IC50", "result": "≤ 0.1", "unit": "µM"}
    ]},
    {"smiles": "COc1ccc(Nc2nc(Nc3cncc(OC)c3OC)ncc2Cl)c(NS(C)(=O)=O)c1", "note": "[Example 81, N-(2-(5-chloro-2-(4,5-dimethoxypyridin-3-ylamino)pyrimidin-4-ylamino)-5-methoxyphenyl)methanesulfonamide]", "values": [
      {"measurement": "IC50", "result": "1 to 10", "unit": "µM"}
    ]},
    {"smiles": "COc1ccc(Nc2nc(Nc3c[nH]c(=O)cc3C)ncc2Cl)c(NS(C)(=O)=O)c1", "note": "[Example 82, N-(2-(5-chloro-2-(4-methyl-6-oxo-1,6-dihydropyridin-3-ylamino)pyrimidin-4-ylamino)-5-methoxyphenyl)methanesulfonamide]", "values": [
      {"measurement": "IC50", "result": "0.1 to 1", "unit": "µM"}
    ]},
    {"smiles": "COc1ccc(Nc2nc(Nc3ccc(OCC(N)=O)cc3C)ncc2Cl)c(NS(C)(=O)=O)c1", "note": "[Example 90, 2-(4-((5-chloro-4-((4-methoxy-2-(methylsulfonamido)phenyl)amino)pyrimidin-2-yl)amino)-3-methylphenoxy)acetamide]", "values": [
      {"measurement": "IC50", "result": "≤ 0.1", "unit": "µM"}
    ]},
    {"smiles": "COc1ccc(Nc2nc(Nc3cc(OC)cc(CO)c3OC)ncc2Cl)c(NS(C)(=O)=O)c1", "note": "[Example 96, N-(2-((5-chloro-2-((3-(hydroxymethyl)-2,5-dimethoxyphenyl)amino)pyrimidin-4-yl)amino)-5-methoxyphenyl)methanesulfonamide]", "values": [
      {"measurement": "IC50", "result": "0.1 to 1", "unit": "µM"}
    ]},
    {"smiles": "COc1ccc(Nc2nc(Nc3cccc(OCCC(F)(F)F)c3C)ncc2Cl)c(NS(C)(=O)=O)c1", "note": "[Example 98, N-(2-((5-chloro-2-((2-methyl-3-(3,3,3-trifluoropropoxy)phenyl)amino)pyrimidin-4-yl)amino)-5-methoxyphenyl)methanesulfonamide]", "values": [
      {"measurement": "IC50", "result": "0.1 to 1", "unit": "µM"}
    ]},
    {"smiles": "COc1ccc(Nc2nc(Nc3nc(OC)ccc3Cl)ncc2Cl)c(NS(C)(=O)=O)c1", "note": "[Example 99, N-(2-(5-chloro-2-(3-chloro-6-methoxypyridin-2-ylamino)pyrimidin-4-ylamino)-5-methoxyphenyl)methanesulfonamide]", "values": [
      {"measurement": "IC50", "result": "1 to 10", "unit": "µM"}
    ]},
    {"smiles": "COc1ccc(Nc2nc(Nc3cc(OC)c(CC(=O)O)cc3OC)ncc2Cl)c(NS(C)(=O)=O)c1", "note": "[Example 100, 2-(4-((5-chloro-4-((4-methoxy-2-(methylsulfonamido)phenyl)amino)pyrimidin-2-yl)amino)-2,5-dimethoxyphenyl)acetic acid]", "values": [
      {"measurement": "IC50", "result": "≤ 0.1", "unit": "µM"}
    ]},
    {"smiles": "COc1ccc(OCCO)cc1Nc1ncc(F)c(Nc2ccccc2NS(C)(=O)=O)n1", "note": "[Example 102, N-(2-(5-fluoro-2-(5-(2-hydroxyethoxy)-2-methoxyphenylamino)pyrimidin-4-ylamino)phenyl)methanesulfonamide]", "values": [
      {"measurement": "IC50", "result": "1 to 10", "unit": "µM"}
    ]},
    {"smiles": "COc1ccc(OCCO)cc1Nc1ncc(F)c(Nc2cccc(C)c2NS(C)(=O)=O)n1", "note": "[Example 103, N-(2-(5-fluoro-2-(5-(2-hydroxyethoxy)-2-methoxyphenylamino)pyrimidin-4-ylamino)-6-methylphenyl)methanesulfonamide]", "values": [
      {"measurement": "IC50", "result": "1 to 10", "unit": "µM"}
    ]},
    {"smiles": "COc1ccc(Nc2nc(Nc3cc(OCC(C)(C)O)ccc3OC)ncc2Cl)c(NS(C)(=O)=O)c1", "note": "[Example 104, N-(2-((5-chloro-2-((5-(2-hydroxy-2-methylpropoxy)-2-methoxyphenyl)amino)pyrimidin-4-yl)amino)-5-methoxyphenyl)methanesulfonamide]", "values": [
      {"measurement": "IC50", "result": "1 to 10", "unit": "µM"}
    ]},
    {"smiles": "COc1ccc(OCCO)cc1Nc1ncc(Cl)c(Nc2ccccc2NS(C)(=O)=O)n1", "note": "[Example 109, N-(2-(5-chloro-2-(5-(2-hydroxyethoxy)-2-methoxyphenylamino)pyrimidin-4-ylamino)phenyl)methanesulfonamide]", "values": [
      {"measurement": "IC50", "result": "0.1 to 1", "unit": "µM"}
    ]},
    {"smiles": "COc1ccc(Nc2nc(Nc3cc(OCCO)c(OC)cc3C)ncc2Cl)c(NS(C)(=O)=O)c1", "note": "[Example 114, N-(2-(5-chloro-2-(5-(2-hydroxyethoxy)-4-methoxy-2-methylphenylamino)pyrimidin-4-ylamino)-5-methoxyphenyl)methanesulfonamide]", "values": [
      {"measurement": "IC50", "result": "1 to 10", "unit": "µM"}
    ]}
  ]
}
